Among the data in PubChem BioAssay (NCI) are GI50 and TGI values, retold here.

SMILES strings stand for the structures.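 Each compound was tested at five concentrations against cells in 96-well plates for 48 hours. GI50: concentration for 50% inhibition of growth. TGI: total growth inhibition.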

Common to all, as to assay: inhibition of tumour cell growth, NCI panel, 48 h
In assay [1] the test system is UACC-62 melanoma.
Assay [2] relates to HOP-92 NSCLC.
For assay [3], the system named is IGROV1 ovarian.
For assay [4], the system named is LOX IMVI melanoma.
Assay [5] concerns SK-OV-3 ovarian.
The subject of assay [6] is K-562 leukemia.
Assay [7] deals with OVCAR-5 ovarian.
In assay [8] the test system is NCI-H23 lung.
Assay [9] deals with SK-MEL-2 melanoma.
Assay [10] deals with TK-10 renal.

For `COc1ccc(/C=C/C(=O)c2cc3c(N)c(C(=O)Nc4ccc(OC)cc4)sc3nc2C)cc1`, the GI50 in [1] was 0.161 µM; in assay [2], 0.757 µM; in assay [3], 0.551 µM; in assay [4], 1.06 µM; in assay [5], 0.215 µM; in [6], 0.385 µM. The GI50 was 0.299 µM in assay [7], 0.181 µM in assay [8], 0.359 µM in assay [9] and 2.85 µM in [10]. Also, the TGI in assay [1] was greater than 50 µM; in [2], greater than 50 µM; in assay [3], greater than 50 µM; in [4], 11.3 µM; in assay [5], greater than 50 µM; in assay [6], greater than 50 µM. Also, the TGI in assay [7], in assay [9] and in assay [10] was greater than 50 µM throughout.
On to `CC(=O)Oc1cc2cnc3c4cc(OC(C)=O)c(OC(C)=O)cc4ccc3c2cc1OC(C)=O`, for which the GI50 is 0.979 µM in assay [1]; 0.538 µM in assay [2]; 1.01 µM in assay [3]; 1.23 µM in assay [4]; 4.32 µM in assay [5]; 2.08 µM in assay [6]. In addition, the GI50 in [7] is 3.93 µM; in assay [8] it was 2.54 µM; in [9] it was 4.5 µM; in [10], 2.78 µM. In addition, the TGI in [1] is 3.26 µM; in [2], 37.9 µM; in [3] it was 14 µM; in [4], greater than 100 µM; in assay [5] it was greater than 100 µM; in assay [6], greater than 100 µM. For the same molecule, the TGI is greater than 100 µM in [7], greater than 100 µM in assay [8], 79.9 µM in assay [9] and greater than 100 µM in assay [10].
On to `O=c1[nH]cnc2n[nH]nc12`, for which the TGI in [1] is 6.8 µM; in assay [2], greater than 100 µM; in assay [3], greater than 100 µM; in assay [4], greater than 49 µM; in assay [5], greater than 25.2 µM; in assay [6], greater than 100 µM. Moreover, the TGI in assay [7] is greater than 100 µM; in [8], greater than 100 µM; in assay [9] it was 32 µM; in assay [10] it was greater than 100 µM.
As for `CCc1ccc2c(c1)N(CCO)C1=C(C(=O)OC1)C2c1cc(OC)c(OC)c(OC)c1` (stereo not drawn), the GI50 was 0.182 µM in assay [1]; 0.716 µM in assay [2]; 0.376 µM in assay [3]; 0.318 µM in assay [4]; 0.169 µM in [5]; 0.176 µM in assay [6]. Further, the GI50 in [7] is 0.422 µM; in assay [8], 0.219 µM; in assay [9], 0.143 µM; in assay [10], 0.248 µM. The TGI is greater than 50 µM in [1]; greater than 50 µM in assay [2]; greater than 50 µM in assay [3]; greater than 50 µM in assay [4]; greater than 30.4 µM in assay [6]; greater than 50 µM in assay [7]. Further, the TGI in [8] was greater than 14.4 µM; in assay [9], 0.469 µM; in assay [10], greater than 50 µM.
For the molecule `CC1(C)OC(=O)C(=C2CCC(C(=O)Nc3cccc(C(F)(F)F)c3)N2)C(=O)O1` (stereo not drawn), the TGI in assay [1], in [2], in assay [3], in [4], in assay [5] and in assay [6] was greater than 100 µM each time. For the same molecule, the TGI in [7], in [8], in assay [9] and in [10] was greater than 100 µM each time.
As for `O=C1Nc2ccc3c(c2/C1=C\c1cc2c(cc1Br)OCO2)OCO3`, the GI50 is 0.359 µM in assay [1]; 1.16 µM in assay [2]; 0.199 µM in assay [3]; 0.652 µM in [4]; 0.512 µM in assay [5]; 0.179 µM in assay [6]. The GI50 in assay [7] was 1.55 µM; in assay [8] it was 0.857 µM; in assay [9], 3.4 µM; in assay [10], 1.52 µM. Moreover, the TGI in assay [1] was 3.23 µM; in [2], 4.37 µM; in assay [3], 1.7 µM; in assay [4], 4.57 µM; in assay [5], 1.89 µM; in assay [6], greater than 35.9 µM. The TGI was 5.89 µM in assay [7], 7.42 µM in assay [8], greater than 100 µM in assay [9] and 3.84 µM in [10].
Turning to `COc1ccc(-c2csc(Nc3cccc(-c4csc(C)n4)c3)n2)cc1`, the GI50 in [1] is 0.249 µM; in [2], 24.7 µM; in assay [3], 0.697 µM; in assay [4] it was 0.389 µM; in assay [5], 2.17 µM; in assay [6], 0.137 µM. Also, the GI50 is 3.45 µM in assay [7], 0.931 µM in [8], 4.7 µM in [9] and 5.04 µM in assay [10]. Moreover, the TGI in assay [1] was 7.61 µM; in assay [2], greater than 50 µM; in [3], greater than 41.6 µM; in [4], 11.8 µM; in [5], greater than 50 µM; in assay [6], 0.507 µM. Further, the TGI in assay [7] is 48.6 µM; in [8] it was 10.1 µM; in assay [9], greater than 27 µM; in [10] it was greater than 50 µM.
For the molecule `COc1cc2c(c(OC)c1OC)C(=O)NCCC2`, the TGI in assay [1], in assay [2], in assay [3], in [4], in assay [5] and in assay [6] was greater than 100 µM in each case. The TGI in assay [7], in assay [8], in assay [9] and in assay [10] was greater than 100 µM throughout.
For `C=C1CC[C@H]2C(C)=CC[C@H]3C(=C)C(=O)O[C@@H]3[C@@H]12`, the TGI in assay [1], in [2], in assay [3], in assay [4], in assay [5] and in assay [6] was greater than 100 µM each time. For the same molecule, the TGI in [7], in assay [8], in assay [9] and in assay [10] was greater than 100 µM in each case.
